Assays:
M. javanica [1] = assay: Nematicidal activity of fatty acid methyl ester emulsions, nematode spectrum (Table 6); assay type: in vivo, Meloidogyne javanica; details: M. javanica 2nd stage juveniles, head 24 hr, b171 48 hours
Method: (§1) Briefly, the indicated fatty acid emulsions were added to nematodes in wells of a 24-well plate and rapidly mixed by swirling. […] Results shown are mean % values obtained from multiple independent experiments
(§2) The Caenorhabditis elegans were mixed stage populations. Similar effects were seen on several other free-living nematode species. The Parastrongyloides trichosuri (parasite of Australian bushtail possum) were dauer-like infective 3rd stage larva. Similar effects are also seen against free-living stages. The Meloidogyne incognita and Meloidogyne javanica (root knot nematode) were 2nd stage juveniles (dauer-like infective stage). The Heterodera glycines (soybean cyst nematode) were 2nd stage juveniles (dauer-like infective stage). Finally, the Pratylenchus scribneri (corn lesion nematode) were mixed stage populations.

C. elegans [2] = assay: as above; assay type: in vivo, Caenorhabditis elegans; details: C. elegans mixed stage
Method: as §1, §2

M. incognita [3] = assay: as above; assay type: in vivo, Meloidogyne incognita; details: M. incognita 2nd stage juveniles, head 24 hr, b171 48 hours
Method: as §1, §2

H. glycines = assay: as above; assay type: in vivo, Heterodera glycines; details: H. glycines 2nd stage juveniles, head 24 hr, b171 48 hours
Method: as §1, §2

C. elegans [4] = assay: Nematicidal activity of fatty acid methyl ester emulsions against C. elegans (Table 2)
P. scribneri = assay: Nematicidal activity of fatty acid methyl ester emulsions, nematode spectrum (Table 6); assay type: in vivo, Pratylenchus scribneri; details: P. scribneri mixed stage
Method: as §1, §2

P. trichosuri = assay: as above; assay type: in vivo, Parastrongyloides trichosuri; details: P. trichosuri infective 3rd stage larva
Method: as §1, §2

M. incognita [5] = assay: Nematicidal activity of fatty acid methyl ester emulsions against root knot nematode J2 larvae (Table 5); assay type: in vivo; details: 0.1% emulsion; 48 hours incubation, counted about 24 hours after transfer to plates
Method: (§3) M. incognita and M. javanica were prepared from tomato roots. The roots were bleached and the debris was separated from the J2 larvae and eggs by filtration followed by sucrose density gradient centrifugation. Eggs were hatched over 4 days at 15° C. and the J2 larvae were collected by passage though a filter, followed by centrifugation.
(§4) Nematodes and emulsions were incubated with shaking at room temperature for 48 hours. The contents of each well were transferred to a small spot on individual NGM plates lacking bacteria. About 24 hours after the transfer to plates, worms on and off the inoculation spot were counted as not viable or viable, respectively. Worms were considered viable if they had crawled away from the inoculation spot, or if they were moving. Worms were considered non-viable if they remained at the inoculation spot.

M. javanica [6] = assay: as above; assay type: in vivo; details: 0.1% emulsion; 48 hours incubation, counted about 24 hours after transfer to plates
Method: as §3, §4

C. elegans dauers = assay: Nematicidal activity of methyl ester, salt and free fatty acid emulsions vs. C. elegans dauers (Table 4); assay type: in vivo, Caenorhabditis elegans
C. elegans [7] = assay: Nematicidal activity of methyl ester, salt and free fatty acid emulsions vs. C. elegans N2s (Table 3); assay type: in vivo, Caenorhabditis elegans
Text: Nematicidal Activity of Single Fatty Acid Methyl Ester, Salt and Free Fatty Acid Emulsions Against Caenorhabditis elegans […] and Dauers

C. elegans [8] = assay: Rescue of delta-12 fat2 RNAi feeding phenotype by fatty acid methyl esters; assay type: in vivo; details: for rescue of the delta-12 fat2 RNAi feeding phenotype: 3 mM added to NGM media
Text: RNAi by feeding: C. elegans can be grown on lawns of E. coli genetically engineered to produce double stranded RNA (dsRNA) designed to inhibit delta-12 fat2 expression. Briefly, E. coli were transformed with a genomic fragment of a portion of the C. elegans fat2 gene sequence, specifically a fragment 651 nucleotides long, containing the entire first exon and terminating just before the conserved intron splice junction between the first exon and first intron. This construct encodes approximately the first 217 amino acids of the C. elegans delta-12 fat2 gene. The 651 nucleotide genomic fragment was cloned into an E. coli expression vector between opposing T7 polymerase promoters. The clone was then transformed into a strain of E. coli that carries an IPTG-inducible T7 polymerase. As a control, E. coli was transformed with a gene encoding the Green Fluorescent Protein (GFP). Feeding RNAi was initiated from C. elegans eggs or from C. elegans L4s. […] The sequence of the fat2 gene is of sufficiently high complexity (i.e., unique) such that the RNAi is not likely to represent cross reactivity with other genes.
The C. elegans delta-12 fatty acid desaturase (FAT-2 protein) converts the mono-unsaturated oleic acid to the di-unsaturated fatty acid linoleic acid. The delta-12 fat2 RNAi prevents expression of the delta-12 fatty acid desaturase, which is predicted to cause a decrease in levels of linoleic acid in the nematode, leading to arrested development and death.

tomato seedlings = assay: Phytotoxicity evaluation of fatty acid methyl esters on tomato seedlings; assay type: in vivo; details: for phytotoxic effects on tomato seedlings: 250 μl of 1% emulsion at stem-media interface of two-week seedlings
Method: Sterilized tomato seeds were germinated in magenta jars containing Gamborg's agar media. After two weeks of growth, seedlings were treated with 250 μl of 1% fatty acid methyl ester emulsion (nonanoic acid, ricinoleic acid, ricinelaidic acid, oleic acid, or a control emulsion lacking any fatty acid), applied directly to the stem-media interface. Tomato seedlings were scored at various times after application of emulsions.

[9] = test system: wide spectrum of divergent nematode genera; assay: Summary of Table 6: free-living, animal parasitic and plant parasitic nematodes; assay type: in vivo
Method: as §1

SMILES: CCCCCC1OC1C/C=C\CCCCCCCC(=O)OC (stereo in doubt) [Vernolic Acid (C18-methyl ester), vernolic acid methyl ester]
- % Worm Death (24 hr) (M. javanica [1]; 0.01% solution): 60%
- % Worm Death (24 hr) (M. javanica [1]; 0.1% solution): 90%
- % Worm Death (24 hr) (C. elegans [2]; 0.001% solution): 30%
- % Worm Death (24 hr) (C. elegans [2]; 0.01% solution): 50%
- % Worm Death (24 hr) (C. elegans [2]; 0.1% solution): 80%
- % Worm Death (24 hr) (M. incognita [3]; 0.01% solution): 73%
- % Worm Death (24 hr) (M. incognita [3]; 0.1% solution): 98%
- % Worm Death (24 hr) (H. glycines; 0.001% solution): 18%
- % Worm Death (24 hr) (H. glycines; 0.01% solution): 20%
- % Worm Death (24 hr) (H. glycines; 0.1% solution): 30%
- Percentage of Worm Death 1 hr (C. elegans [4]; 0.003% emulsion): 20%
- Percentage of Worm Death 6 hr (C. elegans [4]; 0.003% emulsion): 20%
- Percentage of Worm Death 24 hr (C. elegans [4]; 0.003% emulsion): 20%
- Percentage of Worm Death 1 hr (C. elegans [4]; 0.1% emulsion): 65%
- Percentage of Worm Death 6 hr (C. elegans [4]; 0.1% emulsion): 65%
- Percentage of Worm Death 24 hr (C. elegans [4]; 0.1% emulsion): 75%
- % Worm Death (24 hr) (P. scribneri; 0.01% solution): <20%
- % Worm Death (24 hr) (P. scribneri; 0.1% solution): <20%
- % Worm Death (24 hr) (P. trichosuri; 0.01% solution): ~90%
- % Worm Death (24 hr) (P. trichosuri; 0.1% solution): ~95%
- M. incognita (% not viable) (M. incognita [5]): 100%
- M. javanica (% not viable) (M. javanica [6]): 90%

SMILES: CCCCC/C=C\C/C=C\CCCCCCCC(=O)O [L free acid, linoleic acid, reference compound]
- worm death (C. elegans dauers; 0.01% emulsion): 40%
- worm death (C. elegans dauers; 0.1% emulsion): 50%
- worm death (C. elegans [7]; 0.001% emulsion): <5%
- worm death (C. elegans [7]; 0.01% emulsion): <5%
- worm death (C. elegans [7]; 0.1% emulsion): 10%

SMILES: CCCCC/C=C\C/C=C\CCCCCCCC(=O)OC [Linoleic Acid (C18-methyl ester), linoleic acid methyl ester]
- worm death (C. elegans dauers; 0.01% emulsion): 20%
- worm death (C. elegans dauers; 0.1% emulsion): 40%
- rescue of the delta-12 fat2 RNAi feeding phenotype (C. elegans [8]): partial rescue
- P0 phenotype (C. elegans [8]; fat2 RNAi feeding starting with L4 larvae, 3 mM fatty acid methyl ester in NGM media): Reduced egg laying
- Percentage of Worm Death 1 hr (C. elegans [4]; 0.003% emulsion): 0-5%
- Percentage of Worm Death 6 hr (C. elegans [4]; 0.003% emulsion): 0-5%
- Percentage of Worm Death 24 hr (C. elegans [4]; 0.003% emulsion): 0-5%
- Percentage of Worm Death 1 hr (C. elegans [4]; 0.1% emulsion): 0-5%
- Percentage of Worm Death 6 hr (C. elegans [4]; 0.1% emulsion): 0-5%
- Percentage of Worm Death 24 hr (C. elegans [4]; 0.1% emulsion): 0-5%
- worm death (C. elegans [7]; 0.001% emulsion): <5%
- worm death (C. elegans [7]; 0.01% emulsion): <5%
- worm death (C. elegans [7]; 0.1% emulsion): <5%

SMILES: CCCCCCCCC(=O)OC [Nonanoic (C9-methyl ester), pelargonic acid methyl ester]
- time to almost entire bleaching and near total collapse (tomato seedlings; 250 μl of 1% emulsion): ≤ 24 h
- phytotoxic effects on tomato seedlings (tomato seedlings): obvious phytotoxic effects
- Percentage of Worm Death 1 hr (C. elegans [4]; 0.003% emulsion): 50%
- Percentage of Worm Death 6 hr (C. elegans [4]; 0.003% emulsion): 50%
- Percentage of Worm Death 24 hr (C. elegans [4]; 0.003% emulsion): 50%
- "stun" effect (C. elegans [4]; 0.003% emulsion, many nematodes recover several hours post inoculation): temporarily “stunned”
- Percentage of Worm Death 1 hr (C. elegans [4]; 0.1% emulsion): 100%
- Percentage of Worm Death 6 hr (C. elegans [4]; 0.1% emulsion): 100%
- Percentage of Worm Death 24 hr (C. elegans [4]; 0.1% emulsion): 100%
- nematicidal activity (C. elegans [4]; concentration of 0.1%): strongly nematicidal
- onset of effect on nematode movement and death (C. elegans [4]; emulsion, Table 2): almost immediate cessation of nematode movement and subsequent death
- worm death (C. elegans [7]; 0.001% emulsion): 30%
- worm death (C. elegans [7]; 0.01% emulsion): 100%
- worm death (C. elegans [7]; 0.1% emulsion): 100%

SMILES: CCCCCCCC/C=C\CCCCCCCC(=O)OC [Oleic Acid (C18-methyl ester), oleic acid methyl ester]
- rescue of the delta-12 fat2 RNAi feeding phenotype (C. elegans [8]): does not rescue
- Percentage of Worm Death 1 hr (C. elegans [4]; 0.003% emulsion): 0-5%
- Percentage of Worm Death 6 hr (C. elegans [4]; 0.003% emulsion): 0-5%
- Percentage of Worm Death 24 hr (C. elegans [4]; 0.003% emulsion): 0-5%
- Percentage of Worm Death 1 hr (C. elegans [4]; 0.1% emulsion): 0-5%
- Percentage of Worm Death 6 hr (C. elegans [4]; 0.1% emulsion): 0-5%
- Percentage of Worm Death 24 hr (C. elegans [4]; 0.1% emulsion): 0-5%

SMILES: CCCCCC[C@@H](O)C/C=C\CCCCCCCC(=O)[O-].[K+] [Potassium R, potassium salt of ricinoleic acid]
- worm death (C. elegans dauers; 0.01% emulsion): 20%
- worm death (C. elegans dauers; 0.1% emulsion): 75%
- worm death (C. elegans [7]; 0.001% emulsion): 5%
- worm death (C. elegans [7]; 0.01% emulsion): 15%
- worm death (C. elegans [7]; 0.1% emulsion): 90%

SMILES: CCCCCC[C@@H](O)C/C=C/CCCCCCCC(=O)OC [Re ME, ricinelaidic acid methyl ester]
- % Worm Death (24 hr) (M. javanica [1]; 0.001% solution): ~60%
- % Worm Death (24 hr) (M. javanica [1]; 0.01% solution): 100%
- % Worm Death (24 hr) (M. javanica [1]; 0.1% solution): 100%
- worm death (C. elegans dauers; 0.01% emulsion): 100%
- worm death (C. elegans dauers; 0.1% emulsion): 100%
- nematicidal activity ([9]; concentrations of 0.1% and 0.01%): strongly nematicidal
- breadth of nematicidal activity ([9]; summary of Table 6): favorable nematicidal activity against a wide spectrum of divergent nematode genera
- % Worm Death (24 hr) (C. elegans [2]; 0.001% solution): 75%
- % Worm Death (24 hr) (C. elegans [2]; 0.01% solution): 100%
- % Worm Death (24 hr) (C. elegans [2]; 0.1% solution): 100%
- % Worm Death (24 hr) (M. incognita [3]; 0.001% solution): 97%
- % Worm Death (24 hr) (M. incognita [3]; 0.01% solution): ~99%
- % Worm Death (24 hr) (M. incognita [3]; 0.1% solution): ~99%
- % Worm Death (24 hr) (H. glycines; 0.001% solution): 100%
- % Worm Death (24 hr) (H. glycines; 0.01% solution): 100%
- % Worm Death (24 hr) (H. glycines; 0.1% solution): 100%
- phytotoxic effects on tomato seedlings (tomato seedlings): low phytotoxicity
- % Worm Death (24 hr) (P. scribneri; 0.01% solution): ~40%
- % Worm Death (24 hr) (P. scribneri; 0.1% solution): ~70%
- % Worm Death (24 hr) (P. trichosuri; 0.01% solution): 100%
- % Worm Death (24 hr) (P. trichosuri; 0.1% solution): 100%
- worm death (C. elegans [7]; 0.001% emulsion): 80%
- worm death (C. elegans [7]; 0.01% emulsion): 100%
- worm death (C. elegans [7]; 0.1% emulsion): 100%

SMILES: CCCCCC[C@@H](O)C/C=C/CCCCCCCC(=O)O [Re free acid*, ricinelaidic acid]
- worm death (C. elegans dauers; 0.01% emulsion): 75%
- worm death (C. elegans dauers; 0.1% emulsion): 75%
- worm death (C. elegans [7]; 0.001% emulsion): 40%
- worm death (C. elegans [7]; 0.01% emulsion): 98%
- worm death (C. elegans [7]; 0.1% emulsion): 100%

SMILES: CCCCCC[C@@H](O)C/C=C/CCCCCCCC(=O)[O-].[Na+] [Sodium Re*, sodium salt of ricinelaidic acid]
- worm death (C. elegans [7]; 0.01% emulsion): 100%
- worm death (C. elegans [7]; 0.1% emulsion): 100%

From US7919680B2, “Nucleic acids encoding anthelmintic agents and plants made therefrom” (Divergence, Inc., priority 2004, dated 2011)
